Values after ≈ are worked out from the molar mass of the structure shown. Read-outs that look alike come from different tables or passages of the source.
Legend:
E. coli 12140 = experiment: in vivo mouse protection test; details: Escherichia coli
Protocol: (§1) 4200 upon subcutaneous injection; and 17.5 mg./kg. against E. coli 12140 and 25.5 mg./kg. against Kleb. pneumo. 4200 upon oral administration.

Kleb. pneumo. 4200 = experiment: in vivo mouse protection test
Protocol: as §1

E. coli SK 12140 = experiment: in vitro MIC testing; type: cell-based; details: Escherichia coli, SK12140, two values given
Protocol: (§2) The compounds of Formula I have exceptional antibacterial activity against both Gram-positive and Gram-negative organisms. Minimum inhibitory concentrations (MIC's) range from 0.1 to >200 μg./ml. in in vitro testing. Test results for the compound 7-D-mandelamido-3-[1-(2-ureidoethyl)tetrazol-5-ylthiomethyl]-3-cephem-4-carboxylic acid are given below: […]

S. aureus HH 127 = experiment: in vitro MIC testing; type: cell-based; details: two values given
Protocol: as §2

Proteus morgani 179 = experiment: in vitro MIC testing; type: cell-based; details: two values given
Protocol: as §2

S. aureus SK 23390 = experiment: in vitro MIC testing; type: cell-based; details: Staphylococcus aureus, SK23390, two values given
Protocol: as §2

Kleb. pneumo. SK 1200 = experiment: in vitro MIC testing; type: cell-based; details: two values given
Protocol: as §2

Shigella HH 117 = experiment: in vitro MIC testing; type: cell-based; details: two values given
Protocol: as §2

E. coli HH 33779 = experiment: in vitro MIC testing; type: cell-based; details: Escherichia coli, HH33779, two values given
Protocol: as §2

Strep. faecalis HH 34358 = experiment: in vitro MIC testing; type: cell-based; details: Enterococcus faecalis, HH34358, two values given
Protocol: as §2

Pseudo. aerug. HH 63 = experiment: in vitro MIC testing; type: cell-based; details: two values given
Protocol: as §2

Kleb. pneumo. SK 4200 = experiment: in vitro MIC testing; type: cell-based; details: two values given
Protocol: as §2

S. villaluz SK 70390 = experiment: in vitro MIC testing; type: cell-based; details: two values given
Protocol: as §2

Entero. cloacae HH 31254 = experiment: in vitro MIC testing; type: cell-based; details: Enterobacter cloacae, HH31254, two values given
Protocol: as §2

[1] = tested on: Serratia Marc. ATCC 13880; experiment: in vitro MIC testing; type: cell-based; details: ATCC13880, two values given
Protocol: as §2

Compound: NC(=O)NCCn1nnnc1SCC1=C(C(=O)O)N2C(=O)C(NC(=O)[C@H](O)c3ccccc3)[C@H]2SC1 (stereo partly drawn) [7-D-Mandelamido-3-[1-(2-ureidoethyl)tetrazol-5-ylthiomethyl]-3-cephem-4-carboxylic acid]
- ED50 (E. coli 12140; E. coli 12140, oral administration): 17.5 mg/kg
- ED50 (E. coli 12140; sc, E. coli 12140, subcutaneous injection): 0.86 mg/kg
- ED50 (Kleb. pneumo. 4200; Kleb. pneumo. 4200, oral administration): 25.5 mg/kg
- ED50 (Kleb. pneumo. 4200; sc, Kleb. pneumo. 4200, subcutaneous injection): 1.34 mg/kg
- MIC (E. coli SK 12140): 0.8 mg/L (≈ 1.5 µM)
- MIC (S. aureus HH 127; S. aureus HH 127): 1.6 mg/L (≈ 2.99 µM)
- MIC (S. aureus HH 127; Staphylococcus aureus, HH127, S. aureus HH 127, read-out: MIC): 3.1 mg/L (≈ 5.8 µM)
- MIC (Proteus morgani 179): 0.8 mg/L (≈ 1.5 µM)
- MIC (S. aureus SK 23390): 0.4 mg/L (≈ 0.748 µM)
- MIC (Kleb. pneumo. SK 1200): 0.4 mg/L (≈ 0.748 µM)
- MIC (Shigella HH 117; Shigella HH 117): 0.2 mg/L (≈ 0.374 µM)
- MIC (Shigella HH 117; Shigella, HH117, Shigella HH 117, read-out: MIC): 0.1 mg/L (≈ 0.187 µM)
- MIC (E. coli HH 33779): 1.6 mg/L (≈ 2.99 µM)
- MIC (Strep. faecalis HH 34358): 25 mg/L (≈ 46.8 µM)
- MIC (Pseudo. aerug. HH 63): > 200 mg/L
- MIC (Kleb. pneumo. SK 4200): 0.8 mg/L (≈ 1.5 µM)
- MIC (S. villaluz SK 70390): 25 mg/L (≈ 46.8 µM)
- MIC (Entero. cloacae HH 31254): 0.8 mg/L (≈ 1.5 µM)
- MIC [1]: 25 mg/L (≈ 46.8 µM)

Source: patent US4025626A, “7-Acyl-3-(ureidoalkyl substituted tetrazolylthiomethyl)-cephalosporins” (SmithKline Corporation, priority 1975, dated 1977)
